From patent US9101635B2 (priority 2009, dated 2015)
Like-named read-outs stand apart in the source and are kept apart here.

Key:
[1] = system: HIV/EBOV-GP pseudotype virus; test: microbe, parasite or virus in culture; assay type: cell-based, EBOV Zaire strain; conditions: for inhibition at 25 µM: read-out: Inhibition of pseudotype virus at 25 μM in 293T cells (%) HIV/EBOV-GP
[2] = system: HIV/VSV-G pseudotype virus; test: microbe, parasite or virus in culture; assay type: cell-based, vesicular stomatitis virus; conditions: for inhibition at 25 µM: Human immunodeficiency virus 1, HEK-293T, read-out: Inhibition of pseudotype virus at 25 μM in 293T cells (%) HIV/VSV-GP
[3] = system: recombinant Zaire EBOV expressing green fluorescent protein (GFP-ZEBOV); test: microbe, parasite or virus in culture; assay type: cell-based, EBOV (Zaire subtype, 1995 strain)
[4] = system: HIV/MARV-GP pseudotype virus; test: microbe, parasite or virus in culture; assay type: cell-based, MARV (Lake Victoria strain)
[5] = system: HIV/LASV-GP pseudotype virus; test: microbe, parasite or virus in culture; assay type: cell-based, Lassa virus (LASV)
[6] = system: HIV/HA(H5) pseudotype virus; test: microbe, parasite or virus in culture; assay type: cell-based, influenza virus subtype H5
[7] = system: HIV/EBOV-GP pseudotype virus; assay type: cell-based, EBOV Zaire strain
[8] = system: 293T cells
[9] = system: HIV/EBOV-GP pseudotype virus; test: microbe, parasite or virus in culture; assay type: cell-based, EBOV Zaire strain; conditions: Human immunodeficiency virus 1, HEK-293T, read-out: inhibition of infection, Assay 4: compounds pre-incubated with 293T cells at 4° C. before virus
[10] = system: Vero E6 cells; conditions: African green monkey
[11] = in vitro; conditions: human
[12] = in vitro; conditions: African green monkey
[13] = system: EBOV Δmucin GP; assay type: cell-based; conditions: pH 5
[14] = target: VSV-G (Vesicular stomatitis Indiana virus, UniProt P03522); assay type: cell-based; conditions: pH 5
Sequence of VSV-G (P03522 17-511 limits assumed): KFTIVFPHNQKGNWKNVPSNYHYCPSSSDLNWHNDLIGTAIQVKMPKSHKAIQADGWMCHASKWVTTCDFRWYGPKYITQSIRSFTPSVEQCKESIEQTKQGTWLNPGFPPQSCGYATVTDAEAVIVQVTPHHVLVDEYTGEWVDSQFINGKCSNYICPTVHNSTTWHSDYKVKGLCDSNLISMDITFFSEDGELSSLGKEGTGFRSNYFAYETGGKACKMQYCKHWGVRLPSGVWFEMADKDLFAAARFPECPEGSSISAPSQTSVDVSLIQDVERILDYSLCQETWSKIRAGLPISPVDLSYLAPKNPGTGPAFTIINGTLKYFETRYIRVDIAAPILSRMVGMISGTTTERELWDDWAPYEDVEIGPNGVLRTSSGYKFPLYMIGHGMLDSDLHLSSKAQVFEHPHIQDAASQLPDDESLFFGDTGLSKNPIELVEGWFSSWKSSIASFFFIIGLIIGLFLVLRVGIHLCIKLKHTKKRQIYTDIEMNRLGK

[15] = Human immunodeficiency virus 1, HEK-293T
[16] = Human immunodeficiency virus 1, HEK-293T, read-out: HIV/EBOV-Gp IC90 (μM)
[17] = Human immunodeficiency virus 1, HEK-293T, read-out: IC90 (μM) against HIV/EBOV-GP
[18] = Zaire ebolavirus, Vero C1008, 48 h, read-out: GFP-ZEBOV IC50 (μM)
[19] = Zaire ebolavirus, Vero C1008, 48 h, read-out: GFP-ZEBOV IC90 (μM)
[20] = Human immunodeficiency virus 1, HEK-293T, read-out: HIV/EBOV-GP IC90 (μM)
[21] = Zaire ebolavirus, Vero C1008, read-out: Infectious EBOV IC50 (μM)
[22] = Human immunodeficiency virus 1, read-out: HIV/MARV-GP IC90 (μM)
[23] = Human immunodeficiency virus 1, read-out: HIV/LASV-GP IC90 (μM)
[24] = Human immunodeficiency virus 1, read-out: HIV/HA (H5) IC90 (μM)

Compound	IC50 [1, 15] [µM]	GFP-ZEBOV percentage in parentheses beside IC90 >25 [3]	IC90 [1, 16] [µM]	IC90 [1, 17] [µM]	inhibition at 25 µM [1, 15] [%]	inhibition at 25 µM [2] [%]	IC50 [3, 18] [µM]	IC90 [3, 19] [µM]	CC50 [11] [µM]	CC50 ([12]; GFP-ZEBOV CC50 (μM)) [µM]	further results
Oc1ccccc1C1=Nc2ccccc2N=C(c2cccs2)C1 [Compound G8]	> 100	–	–	–	–	–	–	–	–	–	–
Oc1ccc(Cl)cc1C1=Nc2ccccc2N=C(c2ccco2)C1 [Compound G9]	> 100	–	–	–	–	–	–	–	–	–	–
COc1ccc(O)c(C2=Nc3ccccc3N=C(c3cccs3)C2)c1 [Compound G10]	> 100	–	–	–	–	–	–	–	–	–	–
Oc1ccccc1C1=Nc2ccccc2N=C(c2ccco2)C1 [Compound G11]	> 100	–	–	–	–	–	–	–	–	–	–
O=[N+]([O-])c1cccc(C2=Nc3ccccc3N=C(c3ccccc3O)C2)c1 [Compound G12]	> 100	–	–	–	–	–	–	–	–	–	–
FC(F)C(F)(F)C1=Nc2ccccc2N=C(c2ccccc2)C1 [Compound G]	–	>25 (70%)	–	–	–	–	–	–	–	–	Inhibition of pseudotype virus at 25 μM in 293T cells (%) HIV/EBOV-GP ([1]; 25 μM): 96%; IC90 ([1]; read-out: HIV/EBOV-GP IC90): 12.1 µM; IC90 ([1]; read-out: HIV/EBOV-Gp IC90): 12.1 µM; IC50 ([1]; read-out: IC50): 12.1 µM; IC90 ([1]; read-out: IC90 (μM) against HIV/EBOV-GP): 20.1 µM; Inhibition of pseudotype virus at 25 μM in 293T cells (%) HIV/VSV-GP ([2]; 25 μM): 20%; IC50 ([3]; read-out: GFP-ZEBOV IC50): 10 µM; IC90 ([3]; read-out: GFP-ZEBOV IC90): > 25 µM; IC50 ([3]; read-out: Infectious EBOV IC50): 10 µM; IC90 ([4]; read-out: HIV/MARV-GP IC90): 10 µM; IC90 ([5]; read-out: HIV/LASV-GP IC90): > 50 µM; IC90 ([6]; read-out: HIV/HA (H5) IC90): > 50 µM; inhibition, added at time 0 at 0° C. ("binding") [7]: > 75%; CC50 [8]: 75 µM
O=c1c2ccccc2nc(/C=C/c2ccc([N+](=O)[O-])o2)n1-c1cccc(C(F)(F)F)c1 [D]	–	>25 (85%)	1.1	1.1	100	15	15.5	> 25	30	> 50	inhibition at 10 µM [9]: > 75%; CC50 [10]: 62.5 µM
O=C(Nc1ccc(Cl)c(Cl)c1)c1ccc([N+](=O)[O-])o1 [E]	–	–	20.8	20.8	98	25	14.5	20	54	40	–
N=c1c2c(-c3ccccc3)c(-c3ccccc3)n(Cc3ccco3)c2ncn1CCCn1ccnc1 [F]	–	>25 (78%)	10.9	10.9	98	20	15	> 25	25	48.5	inhibition at 10 µM [9]: > 75%
Cc1ccc(N(c2ccc(C)cc2)c2cccnc2)cc1 [H]	–	>25 (59%)	23.5	23.5	100	30	20	> 25	> 50	22.6	–
COc1ccc(OC)c(NC(=O)CC(c2ccc(OC)cc2OC)S(=O)(=O)c2ccccc2)c1 (stereo not shown) [I]	–	–	–	–	–	–	–	–	32	–	IC90 [1, 20]: 2.7 µM; IC50 [3, 21]: 4.6 µM; IC90 [4, 22]: 2.8 µM; IC90 [5, 23]: > 50 µM; IC90 [6, 24]: > 50 µM; activity when added after virus infection (+1 h) ("fusion") [7]: active; CC50 ([12]; Infectious EBOV CC50 (μM)): 40 µM
CCOc1ccc(NC(=O)CSc2nnc(COc3cccc(N(C)C)c3)n2-c2ccccc2)cc1 [K]	–	–	–	–	–	–	–	–	98	–	selectivity index, third value column of Table 7 (head only in drawing) [1]: 39; IC90 [1, 20]: 2 µM; IC50 ([1]; Human immunodeficiency virus 1, HEK-293T, read-out: antiviral potency, first value column of Table 7 (head only in drawing)): 2.5 µM; IC50 [3, 21]: 2.5 µM; IC90 [4, 22]: 11 µM; IC90 [5, 23]: > 50 µM; IC90 [6, 24]: > 50 µM; activity when added after virus infection (+1 h) ("fusion") [7]: active; cytotoxicity, second value column of Table 7 (head only in drawing) ([8]; human): 98; CC50 ([12]; Infectious EBOV CC50 (μM)): 50 µM
Bafilomycin	–	–	–	–	–	–	–	–	–	–	inhibition of cell-cell fusion, EBOV expressing cells [13]: completely inhibited; inhibition of cell-cell fusion, VSV-G expressing cells [14]: completely inhibited
